# Reference: patent US20250223259A1, “PROTEASE INHIBITORS FOR TREATING OR PREVENTING CORONAVIRUS INFECTION” (Merck Sharp & Dohme LLC, priority 2022, published 2025)
# Biological target: SARS2 coronavirus 3CL protease (Severe acute respiratory syndrome coronavirus 2 (2019-nCoV) (SARS-CoV-2), UniProt P0DTD1)
# Test: SARS2 Coronavirus 3CL Protease Assay (FRET)
# Type: biochemical
# Conditions: SARS2 3CLPro FRET assay; 5 nM enzyme, 30 min pre-incubation with compound, 15 uM peptide substrate, 4 h room temperature
row,Compound,IC50 [nM]
1,"COC(=O)N[C@H](C(=O)N1CC2CCC(C1C(=O)N[C@@H](CCC(C)(F)F)C(=O)C(=O)NC1CC1)C2(F)F)C(C)(C)C (single isomer, unassigned) [Example 99, methyl ((S)-1-((1(S or R),2(S or R),5(R or S))-2-(((S)-1-(cyclopropylamino)-6,6-difluoro-1,2-dioxoheptan-3-yl)carbamoyl)-8,8-difluoro-3-azabicyclo[3.2.1]octan-3-yl)-3,3-dimethyl-1-oxobutan-2-yl)carbamate]",100
2,"[2H]C([2H])([2H])NC(=O)C(=O)[C@H](CCC(C)(F)F)NC(=O)C1CC(C(F)(F)F)CCN1C(=O)[C@@H](NC(=O)OC([2H])([2H])[2H])C(C)(C)C (single isomer, unassigned) [Example 100, methyl-d3 ((S)-1-((2(S or R),4(S or R))-2-(((S)-6,6-difluoro-1-((methyl-d3)amino)-1,2-dioxoheptan-3-yl)carbamoyl)-4-(trifluoromethyl)piperidin-1-yl)-3,3-dimethyl-1-oxobutan-2-yl)carbamate]",14
3,"CNC(=O)C(=O)[C@H](CCC(C)(F)F)NC(=O)[C@@H]1CC2(CCC2(F)F)CN1C(=O)[C@@H](NC(=O)OC)C(C)(C)C (single isomer, unassigned) [Example 103, methyl ((S)-1-((4(S or R),7S)-7-(((S)-6,6-difluoro-1-(methylamino)-1,2-dioxoheptan-3-yl)carbamoyl)-1,1-difluoro-6-azaspiro[3.4]octan-6-yl)-3,3-dimethyl-1-oxobutan-2-yl)carbamat]",32
4,"CNC(=O)C(=O)[C@H](CCC(C)(F)F)NC(=O)C1C2CC(F)(F)CC2CN1C(=O)[C@@H](NC(=O)OC)C(C)(C)C (single isomer, unassigned) [Example 105, methyl ((S)-1-((1S,3aR,6aS or 1R,3aS,6aR or 1S,3aS,6aR or 1R,3aR,6aS)-1-(((S)-6,6-difluoro-1-(methylamino)-1,2-dioxoheptan-3-yl)carbamoyl)-5,5-difluorohexahydrocyclopenta[c]pyrrol-2(1H)-yl)-3,3-dimethyl-1-oxobutan-2-yl)carbamate]",11
5,"COC(=O)N[C@H](C(=O)N1C[C@H]2[C@@H](C1C(=O)N[C@@H](CCC(C)(F)F)C(=O)C(=O)NC1CC1)C2(Cl)Cl)C(C)(C)C (single isomer, unassigned) [Example 106, methyl ((S)-1-((1S,2(S or R),5R)-6,6-dichloro-2-(((S)-1-(cyclopropylamino)-6,6-difluoro-1,2-dioxoheptan-3-yl)carbamoyl)-3-azabicyclo[3.1.0]hexan-3-yl)-3,3-dimethyl-1-oxobutan-2-yl)carbamate]",8
6,"CNC(=O)C(=O)[C@H](CCC(C)(F)F)NC(=O)C1C(C2CC2C)CCN1C(=O)[C@@H](NC(=O)OC)C(C)(C)C (single isomer, unassigned) [Example 107, methyl ((S)-1-((2(S or R),3(S or R))-2-(((S)-6,6-difluoro-1-(methylamino)-1,2-dioxoheptan-3-yl)carbamoyl)-3-((1(S or R),2(R or S))-2-methylcyclopropyl)pyrrolidin-1-yl)-3,3-dimethyl-1-oxobutan-2-yl)carbamate]",14
7,"COC(=O)N[C@H](C(=O)N1CCC(C(F)F)CC1C(=O)N[C@@H](CCC(C)(F)F)C(=O)C(=O)NC1CC1)C(C)(C)C (single isomer, unassigned) [Example 108, methyl ((S)-1-((2(S or R),4(R or S)-2-(((S)-1-(cyclopropylamino)-6,6-difluoro-1,2-dioxoheptan-3-yl)carbamoyl)-4-(difluoromethyl)piperidin-1-yl)-3,3-dimethyl-1-oxobutan-2-yl)carbamate]",22
8,"COC(=O)N[C@H](C(=O)N1CCC(OC(F)F)CC1C(=O)N[C@@H](CCC(C)(F)F)C(=O)C(=O)NC1CC1)C(C)(C)C (single isomer, unassigned) [Example 109, methyl ((S)-1-((2R,4R or 2S,4S)-2-(((S)-1-(cyclopropylamino)-6,6-difluoro-1,2-dioxoheptan-3-yl)carbamoyl)-4-(difluoromethoxy)piperidin-1-yl)-3,3-dimethyl-1-oxobutan-2-yl)carbamate]",50
9,"CNC(=O)C(=O)[C@H](CCC(C)(F)F)NC(=O)C1CCCC(C)N1C(=O)[C@@H](NC(=O)OC)C(C)(C)C (single isomer, unassigned) [Example 110, methyl ((S)-1-((2S,6S or 2R,6R)-2-(((S)-6,6-difluoro-1-(methylamino)-1,2-dioxoheptan-3-yl)carbamoyl)-6-methylpiperidin-1-yl)-3,3-dimethyl-1-oxobutan-2-yl)carbamate]",61
10,"COC(=O)N[C@H](C(=O)N1CCC(OC(F)(F)F)CC1C(=O)N[C@@H](CCC(C)(F)F)C(=O)C(=O)NC1CC1)C(C)(C)C (single isomer, unassigned) [Example 112, methyl ((S)-1-((2S,4S or 2R,4R)-2-(((S)-1-(cyclopropylamino)-6,6-difluoro-1,2-dioxoheptan-3-yl)carbamoyl)-4-(trifluoromethoxy)piperidin-1-yl)-3,3-dimethyl-1-oxobutan-2-yl)carbamate]",146
11,"CNC(=O)C(=O)[C@H](CCC(C)(F)F)NC(=O)C1CC(C(F)(F)F)CCN1C(=O)C(NC(=O)OC)C12CC(F)(C1)C2 (single isomer, unassigned) [Example 115, methyl ((R or S)-2-((2(S or R),4(R or S))-2-(((S)-6,6-difluoro-1-(methylamino)-1,2-dioxoheptan-3-yl)carbamoyl)-4-(trifluoromethyl)piperidin-1-yl)-1-(3-fluorobicyclo[1.1.1]pentan-1-yl)-2-oxoethyl)carbamate]",35
12,"CNC(=O)C(=O)[C@H](CCC(C)(F)F)NC(=O)[C@@H]1[C@H]2CCC[C@H]2CN1C(=O)C(NC(=O)OC)C1CC(F)(F)C1 (single isomer, unassigned) [Example 116, methyl ((S or R)-2-((1S,3aR,6aS)-1-(((S)-6,6-difluoro-1-(methylamino)-1,2-dioxoheptan-3-yl)carbamoyl)hexahydrocyclopenta[c]pyrrol-2(1H)-yl)-1-(3,3-difluorocyclobutyl)-2-oxoethyl)carbamate]",16
13,"CC(C)OC(=O)N[C@H](C(=O)N1CC2(CCCCC2)C[C@H]1C(=O)N[C@@H](CCC(C)(F)F)C(=O)C(=O)NC1CC1)C(C)(C)C [Example 4, Isopropyl ((S)-1-((S)-3-(((S)-1-(cyclopropylamino)-6,6-difluoro-1,2-dioxoheptan-3-yl)carbamoyl)-2-azaspiro[4.5]decan-2-yl)-3,3-dimethyl-1-oxobutan-2-yl)carbamate]",60
14,"CC(F)(F)CC[C@H](NC(=O)[C@@H]1CC2(CCCCC2)CN1C(=O)[C@@H](NC(=O)OC1CCCC1)C(C)(C)C)C(=O)C(=O)NC1CC1 [Example 5, Cyclopentyl ((S)-1-((S)-3-(((S)-1-(cyclopropylamino)-6,6-difluoro-1,2-dioxoheptan-3-yl)carbamoyl)-2-azaspiro[4.5]decan-2-yl)-3,3-dimethyl-1-oxobutan-2-yl)carbamate]",81
15,"COC(=O)N[C@H](C(=O)N1C[C@H]2[C@@H]([C@H]1C(=O)N[C@@H](CCC(C)(F)F)C(=O)C(=O)NC1CC1)C2(C)C)C(C)(C)C [Example 6, Methyl ((S)-1-((1R,2S,5S)-2-(((S)-1-(cyclopropylamino)-6,6-difluoro-1,2-dioxoheptan-3-yl)carbamoyl)-6,6-dimethyl-3-azabicyclo[3.1.0]hexan-3-yl)-3,3-dimethyl-1-oxobutan-2-yl)carbamate]",17
16,"COC(=O)N[C@H](C(=O)N1CC2(CCCCC2)C[C@H]1C(=O)N[C@@H](CCC(C)(F)F)C(=O)C(=O)NCc1ccccc1)C(C)(C)C [Example 7, Methyl ((S)-1-((S)-3-(((S)-1-(benzylamino)-6,6-difluoro-1,2-dioxoheptan-3-yl)carbamoyl)-2-azaspiro[4.5]decan-2-yl)-3,3-dimethyl-1-oxobutan-2-yl)carbamate]",11
17,"CCNC(=O)C(=O)[C@H](CCC(C)(F)F)NC(=O)[C@@H]1CC2(CCCCC2)CN1C(=O)[C@@H](NC(=O)OC)C(C)(C)C [Example 8, Methyl ((S)-1-((S)-3-(((S)-1-(ethylamino)-6,6-difluoro-1,2-dioxoheptan-3-yl)carbamoyl)-2-azaspiro[4.5]decan-2-yl)-3,3-dimethyl-1-oxobutan-2-yl)carbamate]",18
18,"COC(=O)N[C@H](C(=O)N1CC2(CCCCC2)C[C@H]1C(=O)N[C@@H](CCC(C)(F)F)C(=O)C(=O)NCC(C)C)C(C)(C)C [Example 9, Methyl ((S)-1-((S)-3-(((S)-6,6-difluoro-1-(isobutylamino)-1,2-dioxoheptan-3-yl)carbamoyl)-2-azaspiro[4.5]decan-2-yl)-3,3-dimethyl-1-oxobutan-2-yl)carbamate]",21
19,"COC(=O)N[C@H](C(=O)N1CC2(CCCC2)C[C@H]1C(=O)N[C@@H](CCC(C)(F)F)C(=O)C(=O)NC1CC1)C(C)(C)C [Example 10, Methyl ((S)-1-((S)-3-(((S)-1-(cyclopropylamino)-6,6-difluoro-1,2-dioxoheptan-3-yl)carbamoyl)-2-azaspiro[4.4]nonan-2-yl)-3,3-dimethyl-1-oxobutan-2-yl)carbamate]",26
20,"COC(=O)N[C@H](C(=O)N1CC2(CCCCC2)C[C@H]1C(=O)N[C@@H](CCC(C)(F)F)C(=O)C(=O)Nc1ccccc1C)C(C)(C)C [Example 12, Methyl ((S)-1-((S)-3-(((S)-6,6-difluoro-1,2-dioxo-1-(o-tolylamino)heptan-3-yl)carbamoyl)-2-azaspiro[4.5]decan-2-yl)-3,3-dimethyl-1-oxobutan-2-yl)carbamate]",41
21,"COC(=O)N[C@H](C(=O)N1CC2(CCCCC2)C[C@H]1C(=O)N[C@@H](CCC(C)(F)F)C(=O)C(=O)NC(C)C)C(C)(C)C [Example 13, Methyl ((S)-1-((S)-3-(((S)-6,6-difluoro-1-(isopropylamino)-1,2-dioxoheptan-3-yl)carbamoyl)-2-azaspiro[4.5]decan-2-yl)-3,3-dimethyl-1-oxobutan-2-yl)carbamate]",49
